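Each compound was tested at five concentrations against cells in 96-well plates for 48 hours. Here, GI50 denotes the concentration required for 50% inhibition of growth. TGI denotes the concentration required for complete inhibition of growth.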
Assays:
Assay in all cases: NCI-60 cell line screen, 48 h
[1] = tested on: 786-0 renal
[2] = tested on: A498 renal
[3] = tested on: A549 NSCLC
[4] = tested on: ACHN renal
[5] = tested on: BT-549 breast
[6] = tested on: CAKI-1 renal
[7] = tested on: CCRF-CEM leukemia
[8] = tested on: COLO 205 colon
[9] = tested on: DU-145 prostate
[10] = tested on: EKVX NSCLC
[11] = tested on: HCC-2998 colon
[12] = tested on: HCT-116 colon
[13] = tested on: HCT-15 colon
[14] = tested on: HL-60(TB) leukemia
[15] = tested on: HOP-62 NSCLC
[16] = tested on: HOP-92 NSCLC
[17] = tested on: HS 578T breast
[18] = tested on: HT29 colon
[19] = tested on: IGROV1 ovarian
[20] = tested on: K-562 leukemia
[21] = tested on: KM12 colon
[22] = tested on: LOX IMVI melanoma
[23] = tested on: M14 melanoma
[24] = tested on: MALME-3M melanoma
[25] = tested on: MCF7 breast
[26] = tested on: MDA-MB-231 breast
[27] = tested on: MDA-MB-435
[28] = tested on: MDA-MB-468 breast
[29] = tested on: MOLT-4 leukemia
[30] = tested on: NCI-H226 lung
[31] = tested on: NCI-H23 lung
[32] = tested on: NCI-H460 lung
[33] = tested on: NCI-H522 lung
[34] = tested on: OVCAR-3 ovarian
[35] = tested on: OVCAR-4 ovarian
[36] = tested on: OVCAR-5 ovarian
[37] = tested on: OVCAR-8 ovarian
[38] = tested on: PC-3 prostate
[39] = tested on: RPMI-8226 leukemia
[40] = tested on: RXF 393 renal
[41] = tested on: SF-268 CNS
[42] = tested on: SF-295 CNS
[43] = tested on: SF-539 CNS
[44] = tested on: SK-MEL-2 melanoma
[45] = tested on: SK-MEL-28 melanoma
[46] = tested on: SK-MEL-5 melanoma
[47] = tested on: SK-OV-3 ovarian
[48] = tested on: SN12C renal
[49] = tested on: SNB-19 CNS
[50] = tested on: SR leukemia
[51] = tested on: SW-620 colon
[52] = tested on: T-47D breast
[53] = tested on: TK-10 renal
[54] = tested on: U251 CNS
[55] = tested on: UACC-257 melanoma
[56] = tested on: UACC-62 melanoma
[57] = tested on: UO-31 renal
[58] = tested on: NCI/ADR-RES ovarian
[59] = tested on: SNB-75 CNS

Cn1cc(-c2cc(N)n3nc(-c4c[nH]c5ccc(Cl)cc45)cc3n2)c2cc(Br)cnc21
GI50 [1]: 1.64 µM | TGI [1]: 3.06 µM | GI50 [2]: 13.1 µM | TGI [2]: 29.4 µM | GI50 [3]: 2.13 µM | TGI [3]: 6.32 µM | GI50 [4]: 1.87 µM | TGI [4]: 3.92 µM | GI50 [5]: 13.8 µM | TGI [5]: 28.6 µM | GI50 [6]: 3.07 µM | TGI [6]: 16.7 µM | GI50 [7]: 3.32 µM | TGI [7]: 10.7 µM | GI50 [8]: 2.83 µM | TGI [8]: 6.04 µM | GI50 [9]: 3.18 µM | TGI [9]: 9.77 µM | GI50 [10]: 3.04 µM | TGI [10]: 14.1 µM | GI50 [11]: 1.76 µM | TGI [11]: 3.36 µM | GI50 [12]: 2.01 µM | TGI [12]: 4.03 µM | GI50 [13]: 1.61 µM | TGI [13]: 3.02 µM | GI50 [14]: 2.06 µM | TGI [14]: 5.15 µM | GI50 [15]: 4.41 µM | TGI [15]: 27.6 µM | GI50 [16]: 2.16 µM | TGI [16]: 4.58 µM | GI50 [17]: 12.6 µM | TGI [17]: 55.5 µM | GI50 [18]: 1.93 µM | TGI [18]: 3.84 µM | GI50 [19]: 1.94 µM | TGI [19]: 4.47 µM | GI50 [20]: 2.4 µM | TGI [20]: 6.27 µM | GI50 [21]: 2.17 µM | TGI [21]: 4.87 µM | GI50 [22]: 1.95 µM | TGI [22]: 3.44 µM | GI50 [23]: 2.37 µM | TGI [23]: 5.88 µM | GI50 [24]: 2.18 µM | TGI [24]: 5.19 µM | GI50 [25]: 1.77 µM | TGI [25]: 3.31 µM | GI50 [26]: 1.98 µM | TGI [26]: 4.27 µM | GI50 [27]: 2.06 µM | TGI [27]: 4.48 µM | GI50 [28]: 1.32 µM | TGI [28]: 2.73 µM | GI50 [29]: 1.76 µM | TGI [29]: 5.68 µM | GI50 [30]: 2.23 µM | TGI [30]: 11.5 µM | GI50 [31]: 2.63 µM | TGI [31]: 7.83 µM | GI50 [32]: 1.92 µM | TGI [32]: 3.81 µM | GI50 [33]: 1.9 µM | TGI [33]: 3.88 µM | GI50 [34]: 3.23 µM | TGI [34]: 9.96 µM | GI50 [35]: 2.98 µM | TGI [35]: 9.01 µM | GI50 [36]: 2.01 µM | TGI [36]: 6.48 µM | GI50 [37]: 2.29 µM | TGI [37]: 5.22 µM | GI50 [38]: 2.27 µM | TGI [38]: 5.79 µM | GI50 [39]: 3.88 µM | TGI [39]: 34 µM | GI50 [40]: 1.72 µM | TGI [40]: 3.32 µM | GI50 [41]: 7.39 µM | TGI [41]: 43.9 µM | GI50 [42]: 1.84 µM | TGI [42]: 4.04 µM | GI50 [43]: 1.66 µM | TGI [43]: 3.22 µM | GI50 [44]: 2.63 µM | TGI [44]: 7.51 µM | GI50 [45]: 2.1 µM | TGI [45]: 4.97 µM | GI50 [46]: 4.35 µM | TGI [46]: 17 µM | GI50 [47]: 18.6 µM | TGI [47]: 72.1 µM | GI50 [48]: 10.1 µM | TGI [48]: 26.4 µM | GI50 [49]: 3.25 µM | TGI [49]: 11.5 µM | GI50 [50]: 2.27 µM | TGI [50]: > 100 µM | GI50 [51]: 1.82 µM | TGI [51]: 3.5 µM | GI50 [52]: 2.38 µM | TGI [52]: 7.3 µM | GI50 [53]: 2.27 µM | TGI [53]: 7.2 µM | GI50 [54]: 1.81 µM | TGI [54]: 3.39 µM | GI50 [55]: 12.5 µM | TGI [55]: 25.5 µM | GI50 [56]: 1.69 µM | TGI [56]: 3.6 µM | GI50 [57]: 2.93 µM | TGI [57]: 12.1 µM

Cc1occc1C(=O)NN1C(=O)/C(=C/C=C/c2ccc([N+](=O)[O-])o2)SC1=S
GI50 [1]: 2.01 µM | TGI [1]: 4.19 µM | GI50 [2]: 19.4 µM | TGI [2]: 33.6 µM | GI50 [3]: 4.82 µM | TGI [3]: 21.1 µM | GI50 [4]: 1.73 µM | TGI [4]: 3.23 µM | GI50 [5]: 1.77 µM | TGI [5]: 3.29 µM | GI50 [6]: 1.82 µM | TGI [6]: 4.01 µM | GI50 [7]: 1.41 µM | TGI [7]: 8.47 µM | GI50 [8]: 1.62 µM | TGI [8]: 3.23 µM | GI50 [9]: 3.11 µM | TGI [9]: 10.1 µM | GI50 [10]: 1.83 µM | TGI [10]: 4 µM | GI50 [11]: 1.89 µM | TGI [11]: 3.69 µM | GI50 [12]: 1.06 µM | TGI [12]: 2.54 µM | GI50 [13]: 0.645 µM | TGI [13]: 2.24 µM | GI50 [14]: 2.64 µM | TGI [14]: 11.6 µM | GI50 [15]: 3.37 µM | TGI [15]: 11.7 µM | GI50 [16]: 2.56 µM | TGI [16]: 5.59 µM | GI50 [17]: 2.44 µM | TGI [17]: 7.46 µM | GI50 [19]: 1.85 µM | TGI [19]: 3.56 µM | GI50 [20]: 0.586 µM | TGI [20]: 7.28 µM | GI50 [21]: 2.22 µM | TGI [21]: 6.21 µM | GI50 [22]: 1.26 µM | TGI [22]: 2.55 µM | GI50 [23]: 1.51 µM | TGI [23]: 2.93 µM | GI50 [24]: 1.5 µM | TGI [24]: 3.23 µM | GI50 [25]: 1.5 µM | TGI [25]: 5 µM | GI50 [26]: 1.51 µM | TGI [26]: 2.97 µM | GI50 [27]: 1.93 µM | TGI [27]: 4.26 µM | GI50 [28]: 1.62 µM | TGI [28]: 3.27 µM | GI50 [29]: 2.13 µM | TGI [29]: 8.32 µM | GI50 [30]: 2.02 µM | TGI [30]: 5.09 µM | GI50 [31]: 1.78 µM | TGI [31]: 3.6 µM | GI50 [32]: 1.79 µM | TGI [32]: 3.66 µM | GI50 [33]: 1.65 µM | TGI [33]: 3.21 µM | GI50 [58]: 2.55 µM | TGI [58]: 7.46 µM | GI50 [34]: 1.59 µM | TGI [34]: 3.07 µM | GI50 [35]: 2.76 µM | TGI [35]: 10.1 µM | GI50 [36]: 1.86 µM | TGI [36]: 3.68 µM | GI50 [37]: 2.5 µM | TGI [37]: 10.9 µM | GI50 [38]: 2.79 µM | TGI [38]: 10.2 µM | GI50 [39]: 1.67 µM | TGI [39]: 7.51 µM | GI50 [40]: 1.71 µM | TGI [40]: 3.2 µM | GI50 [41]: 2.49 µM | TGI [41]: 6.95 µM | GI50 [42]: 6.19 µM | TGI [42]: 18.8 µM | GI50 [43]: 1.72 µM | TGI [43]: 3.3 µM | GI50 [44]: 1.73 µM | TGI [44]: 3.56 µM | GI50 [45]: 1.85 µM | TGI [45]: 3.63 µM | GI50 [46]: 1.64 µM | TGI [46]: 3.13 µM | GI50 [47]: 5.82 µM | TGI [47]: 18.7 µM | GI50 [48]: 1.65 µM | TGI [48]: 3.96 µM | GI50 [49]: 5.47 µM | TGI [49]: 18 µM | GI50 [59]: 1.66 µM | TGI [59]: 7.48 µM | GI50 [51]: 1.11 µM | TGI [51]: 2.65 µM | GI50 [52]: 2.17 µM | TGI [52]: 5.57 µM | GI50 [53]: 3.47 µM | TGI [53]: 9.99 µM | GI50 [54]: 1.89 µM | TGI [54]: 4.62 µM | GI50 [55]: 2.05 µM | TGI [55]: 5.1 µM | GI50 [56]: 1.36 µM | TGI [56]: 2.77 µM | GI50 [57]: 1.51 µM | TGI [57]: 2.96 µM
